Laboratory results published in patent US20100267561A1, “HERBICIDAL PYRIDAZINONE DERIVATIVES” (priority 2007, published 2010).
Read-outs that look alike come from different tables or passages of the source.

Assays:
[1] = tested on: pigweed (Amaranthus retroflexus); test: Test A pre-/postemergence plant response; type: in vivo; conditions: Amaranthus retroflexus, 240 h, read-out: Plant response rating, Pigweed; for pest or weed control at 31 g/ha: 31 g ai/ha; for pest or weed control at 125 g/ha: 125 g ai/ha
How it was run: (§1)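 Ratings run 0–100 (100 = complete control), assigned visually against untreated controls roughly 10 days after treatment in a greenhouse. Compounds, formulated in non-phytotoxic solvent containing surfactant, were applied as a soil-directed preemergence spray and concurrently postemergence to one- to two-leaf plants 2–10 cm tall.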

[2] = tested on: wheat (Triticum aestivum); test: Test A pre-/postemergence plant response; type: in vivo; conditions: Triticum aestivum, 240 h, read-out: Plant response rating, Wheat; for plant injury at 31 g/ha: 31 g ai/ha; for plant injury at 125 g/ha: 125 g ai/ha
How it was run: as §1

[3] = post-emergence, Postemergence, 0 to 100 scale (0 no effect, 100 complete control)
[4] = post-emergence, Postemergence, 0 to 100 scale, 0 no effect, 100 complete control
[5] = pre-emergence, Preemergence, 0 to 100 scale, 0 is no effect, 100 is complete control
[6] = pre-emergence, Preemergence, 0 to 100 scale (0 no effect, 100 complete control)

Compound | pest or weed control at 31 g/ha [1, 3] | pest or weed control at 125 g/ha [1, 4] | pest or weed control at 31 g/ha [1, 5] | pest or weed control at 125 g/ha [1, 6] | plant injury at 31 g/ha [2, 3] | plant injury at 125 g/ha [2, 4] | plant injury at 31 g/ha [2, 5] | plant injury at 125 g/ha [2, 6]
Cc1cn(-c2ccc(C(F)(F)F)cc2)nc1-c1c(O)cnn(C)c1=O [Compound 85, 5-hydroxy-2-methyl-4-[4-methyl-1-[4-(trifluoromethyl)phenyl]-1H-pyrazol-3-yl]-3(2H)-pyridazinone] | 0% | 0% | 0% | 0% | 0% | 20% | 0% | 20%
Cn1ncc(O)c(-c2nn(-c3ccc(C(F)(F)F)cc3)cc2Br)c1=O [Compound 87, 4-[4-bromo-1-[4-(trifluoromethyl)phenyl]-1H-pyrazol-3-yl]-5-hydroxy-2-methyl-3(2H)-pyridazinone] | 0% | 0% | 0% | 0% | 20% | 50% | 0% | 20%
